Values joined by “and” are separate entries in the source; they are usually repeats but may differ in a detail not shown here. Equal entries are not always repeated.
Key:
[1] = target: T1, ~100 representative kinases (Homo sapiens, UniProt Q16654); experiment: DSF 100 kinase selectivity screen; type: binding; details: protein PDK4; average of three replicates;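 further: compound tested at 20 µM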
T1 construct: Recombinant protein kinase domains with a concentration of 2 μM
Method in brief: (§1)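 Each kinase domain, at 2 μM, is mixed with 20 μM test compound and SYPRO Orange in Hepes (20 mM, pH 7.5) with 500 mM NaCl. Temperature is then raised at 3°C/min and fluorescence-monitored unfolding yields the melting temperature change, ΔTm in degrees Celsius.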

[2] = target: T2, ~100 representative kinases (Homo sapiens, UniProt Q96KB5); experiment: DSF 100 kinase selectivity screen; type: binding; details: Protein TOPK; DSF; average of three replicates;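 further: compound tested at 20 µM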
T2 construct: Recombinant protein kinase domains with a concentration of 2 μM
T2 sequence (Q96KB5 1-322): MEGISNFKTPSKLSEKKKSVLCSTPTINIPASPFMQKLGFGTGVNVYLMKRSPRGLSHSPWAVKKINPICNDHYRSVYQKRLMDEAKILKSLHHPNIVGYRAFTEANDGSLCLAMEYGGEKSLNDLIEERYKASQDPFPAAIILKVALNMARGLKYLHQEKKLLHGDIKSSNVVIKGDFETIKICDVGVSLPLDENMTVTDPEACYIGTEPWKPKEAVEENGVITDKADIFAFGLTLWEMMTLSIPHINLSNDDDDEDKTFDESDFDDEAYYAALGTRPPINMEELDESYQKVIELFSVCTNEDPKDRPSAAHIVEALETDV
Method in brief: as §1

[3] = target: T3, LRRK2 (Homo sapiens, UniProt Q5S007); experiment: Western blot of Rab8a phosphorylation (pT72) in 293T cells transfected with wild-type LRRK2 and GFP-Rab8a; type: cell-based; details: for toxicity / effect on phosphorylation of Rab8a in cells: 293T cells; for toxicity: any of the concentrations used; for effect on phosphorylation of Rab8a in cells: increasing concentrations
T3 construct: wild-type full-length LRRK2 (pcDNA5-LRRK2, RRID: Addgene_229019)
Protocol: For all in cell kinase assays, after 48 hours, transfected cells were treated with either DMSO (control) or the indicated inhibitors for 4 hours at 37°C and 5% CO2. Following treatments, cells were washed three times with ice cold PBS. Cells were then lysed in ice cold radioimmunoprecipitation assay (RIPA) lysis buffer [50 mM tris (pH 8.0), 150 mM NaCl, 1% Triton X-100, 0.1% SDS, 0.5% sodium deoxycholate, and 1 mM DTT] in the presence of complete mini EASYpack protease inhibitor cocktail and the PhosSTOP EASYpack phosphatase inhibitor cocktail (Roche). Resuspended and lysed cells were clarified by centrifugation at 13,000g for 15 min at 4°C. […] The membrane was blocked in 5% milk in 1× Tris-buffered saline (TBS) [20 mM tris (pH 8.0) and 150 mM NaCl] for 1 hour shaking at room temperature. […] Membranes were then washed three times in 1× TBS-T before imaging on Li-COR Odyssey CLx controlled by Imaging Studio software (www.licorbio.com/image-studio, RRID:SCR_015795). […] The signal intensity of each band was assessed using the Analyze>Gels tool. The band intensity for phosphorylated LRRK2 was measured and compared to total LRRK2 levels (run under identical conditions on a separate gel). Band intensity for phosphorylated Rab7 or Rab8a was measured and compared against total GFP-Rab7 or GFP-Rab8a (using anti-GFP antibody) and LRRK1/LRRK2 levels as appropriate. Comparative statistical analysis of phosphorylation levels was analyzed using a one-way analysis of variance (ANOVA) and corrected using Tukey’s multiple comparisons test in GraphPad Prism 10 (www.graphpad.com/, RRID:SCR_002798).

[4] = GFP-11 tagged WT LRRK2, 5 μM, 4 replicates

T1 sequence (Q16654 whole entry, the tested form may be a part): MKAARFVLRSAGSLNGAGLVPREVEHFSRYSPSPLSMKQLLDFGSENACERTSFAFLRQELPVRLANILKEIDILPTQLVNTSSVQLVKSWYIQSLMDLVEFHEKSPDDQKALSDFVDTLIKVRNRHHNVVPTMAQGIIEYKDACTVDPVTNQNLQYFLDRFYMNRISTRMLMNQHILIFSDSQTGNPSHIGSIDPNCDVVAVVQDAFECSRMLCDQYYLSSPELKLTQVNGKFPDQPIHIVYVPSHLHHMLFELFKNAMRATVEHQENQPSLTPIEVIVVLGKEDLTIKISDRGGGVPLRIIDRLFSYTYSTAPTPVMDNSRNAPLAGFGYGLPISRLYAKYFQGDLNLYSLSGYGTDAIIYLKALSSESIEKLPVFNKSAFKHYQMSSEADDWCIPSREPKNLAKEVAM
T3 sequence (Q5S007 whole entry): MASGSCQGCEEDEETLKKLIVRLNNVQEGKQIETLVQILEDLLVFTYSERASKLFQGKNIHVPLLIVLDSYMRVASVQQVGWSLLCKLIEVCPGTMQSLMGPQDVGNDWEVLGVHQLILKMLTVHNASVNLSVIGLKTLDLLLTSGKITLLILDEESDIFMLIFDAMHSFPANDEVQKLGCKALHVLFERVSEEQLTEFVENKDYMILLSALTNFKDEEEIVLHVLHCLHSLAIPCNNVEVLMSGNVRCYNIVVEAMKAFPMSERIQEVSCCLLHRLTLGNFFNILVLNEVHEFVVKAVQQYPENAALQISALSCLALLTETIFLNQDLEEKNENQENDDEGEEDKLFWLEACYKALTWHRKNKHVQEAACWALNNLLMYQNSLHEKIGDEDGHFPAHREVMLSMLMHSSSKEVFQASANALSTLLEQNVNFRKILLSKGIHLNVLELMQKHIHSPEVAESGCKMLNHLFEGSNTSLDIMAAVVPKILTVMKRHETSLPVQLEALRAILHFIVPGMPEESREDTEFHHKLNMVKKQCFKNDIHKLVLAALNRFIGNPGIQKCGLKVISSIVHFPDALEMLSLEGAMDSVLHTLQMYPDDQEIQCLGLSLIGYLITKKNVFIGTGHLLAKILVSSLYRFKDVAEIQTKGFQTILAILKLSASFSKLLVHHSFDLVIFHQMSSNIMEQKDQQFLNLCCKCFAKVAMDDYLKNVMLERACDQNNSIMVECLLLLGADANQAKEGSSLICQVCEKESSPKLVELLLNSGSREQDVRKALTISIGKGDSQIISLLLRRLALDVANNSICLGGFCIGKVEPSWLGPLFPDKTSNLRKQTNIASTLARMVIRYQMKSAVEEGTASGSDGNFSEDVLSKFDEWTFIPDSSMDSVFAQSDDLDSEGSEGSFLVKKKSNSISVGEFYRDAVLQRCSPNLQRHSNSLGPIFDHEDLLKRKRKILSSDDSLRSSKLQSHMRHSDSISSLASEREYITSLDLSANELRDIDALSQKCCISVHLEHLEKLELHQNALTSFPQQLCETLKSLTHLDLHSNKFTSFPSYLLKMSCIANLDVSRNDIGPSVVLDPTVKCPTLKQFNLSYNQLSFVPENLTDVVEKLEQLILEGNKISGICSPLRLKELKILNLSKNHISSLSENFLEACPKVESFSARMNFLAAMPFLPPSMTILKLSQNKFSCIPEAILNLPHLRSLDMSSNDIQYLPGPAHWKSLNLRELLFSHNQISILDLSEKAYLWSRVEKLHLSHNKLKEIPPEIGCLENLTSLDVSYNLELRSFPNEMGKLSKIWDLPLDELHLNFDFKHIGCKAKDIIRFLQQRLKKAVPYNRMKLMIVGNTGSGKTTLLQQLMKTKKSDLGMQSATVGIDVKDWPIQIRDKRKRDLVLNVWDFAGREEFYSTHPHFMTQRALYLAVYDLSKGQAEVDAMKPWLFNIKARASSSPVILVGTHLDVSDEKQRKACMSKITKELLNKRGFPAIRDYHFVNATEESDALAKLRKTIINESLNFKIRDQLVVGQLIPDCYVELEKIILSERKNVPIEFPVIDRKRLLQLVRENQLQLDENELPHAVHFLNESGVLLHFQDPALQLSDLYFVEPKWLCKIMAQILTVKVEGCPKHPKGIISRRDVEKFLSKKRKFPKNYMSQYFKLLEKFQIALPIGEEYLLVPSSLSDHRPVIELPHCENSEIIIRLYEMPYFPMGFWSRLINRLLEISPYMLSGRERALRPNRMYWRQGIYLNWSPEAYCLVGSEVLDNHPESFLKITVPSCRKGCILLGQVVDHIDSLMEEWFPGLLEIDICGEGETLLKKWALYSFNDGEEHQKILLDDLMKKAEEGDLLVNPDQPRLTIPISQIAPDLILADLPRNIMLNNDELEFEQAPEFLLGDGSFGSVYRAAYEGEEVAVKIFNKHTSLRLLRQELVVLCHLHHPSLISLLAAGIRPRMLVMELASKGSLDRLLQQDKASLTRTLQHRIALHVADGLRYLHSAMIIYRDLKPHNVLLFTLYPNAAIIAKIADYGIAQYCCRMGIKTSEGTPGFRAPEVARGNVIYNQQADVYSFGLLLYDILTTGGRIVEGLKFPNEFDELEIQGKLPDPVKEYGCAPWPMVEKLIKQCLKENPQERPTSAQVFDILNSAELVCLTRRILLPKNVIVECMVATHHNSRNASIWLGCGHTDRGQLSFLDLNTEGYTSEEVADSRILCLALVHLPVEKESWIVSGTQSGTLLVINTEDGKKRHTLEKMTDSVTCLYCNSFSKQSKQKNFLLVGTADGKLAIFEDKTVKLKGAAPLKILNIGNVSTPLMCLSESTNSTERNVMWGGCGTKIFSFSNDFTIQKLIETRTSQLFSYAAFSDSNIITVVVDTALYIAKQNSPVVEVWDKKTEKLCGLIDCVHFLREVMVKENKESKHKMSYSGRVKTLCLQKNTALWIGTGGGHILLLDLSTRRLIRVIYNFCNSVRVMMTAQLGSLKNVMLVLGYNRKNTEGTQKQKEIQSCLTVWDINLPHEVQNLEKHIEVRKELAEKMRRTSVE

CCNc1nc(Nc2cc(F)c(C(=O)N3CCOCC3)cc2OC)ncc1C(F)(F)F [GNE-7915]
dTm [1]: -0.0168 K
dTm [2]: 0.03 K

Cc1ccc(C(=O)Nc2ccc(CN3CCN(C)CC3)c(C(F)(F)F)c2)cc1C#Cc1cnc2[nH]ncc2c1 [GZD-824, reference compound]
dTm [1]: -0.28 K
dTm [2]: 4.33 K

Cc1ccc(C(=O)Nc2ccc(CN3CCN(C)CC3)c(C(F)(F)F)c2)cc1C#Cc1c[nH]c2ncnc(N3CCOCC3)c12 [Compound 1]
dTm [1]: -0.54 K
dTm [2]: 2.13 K

Cc1ccc(-n2nc(C(C)(C)C)cc2NC(=O)Nc2cccc(-c3c[nH]c4nc(Cl)nc(N5CCOCC5)c34)c2)cc1 [Compound 30]
pRab8/Rab8/LRRK2 normalized to DMSO, Mean ([3]; 250 nM, 4 h, 3 replicates): 1.123
pRab8/Rab8/LRRK2 normalized to DMSO ([3]; 250 nM, 4 h, individual Western blots, listed as 277): 1.0545 and 1.033 and 1.2826
pRab8/Rab8/LRRK2 normalized to DMSO, Mean ([3]; 500 nM, 4 h, 3 replicates): 0.8664
pRab8/Rab8/LRRK2 normalized to DMSO ([3]; 500 nM, 4 h, individual Western blots, listed as 277): 0.8279 and 0.7001 and 1.071
pRab8/Rab8/LRRK2 normalized to DMSO, Mean ([3]; 1 μM, 4 h, 3 replicates): 0.8611
pRab8/Rab8/LRRK2 normalized to DMSO ([3]; 1 μM, 4 h, individual Western blots, listed as 277): 0.8817 and 0.6143 and 1.087
pRab8/Rab8/LRRK2 normalized to DMSO, Mean ([3]; 5 μM, 4 h, 3 replicates): 0.2926
pRab8/Rab8/LRRK2 normalized to DMSO ([3]; 5 μM, 4 h, individual Western blots, listed as 277): 0.3266 and 0.2385 and 0.3127
pRab8/Rab8/LRRK2 normalized to DMSO, Mean ([3]; 10 μM, 4 h, 3 replicates): 0.2543
pRab8/Rab8/LRRK2 normalized to DMSO ([3]; 10 μM, 4 h, individual Western blots, listed as 277): 0.2723 and 0.2085 and 0.282
toxicity [3]: Toxicity did not appear to be an issue
effect on phosphorylation of Rab8a in cells [3]: reduced phosphorylation of Rab8a in a dose-dependent manner
pRab8/Rab8/LRRK2 normalized to DMSO, Mean [3, 4]: 0.2436
pRab8/Rab8/LRRK2 normalized to DMSO ([3]; GFP-11 tagged WT LRRK2, 5 μM, individual blots, normalized to WT DMSO, listed as RN277): 0.1001 and 0.2331 and 0.598 and 0.04303

Cn1cc(-c2c[nH]c3ncnc(N4CCOCC4)c23)cc1C#N [PFE-360]
dTm [1]: -0.55 K
dTm [2]: 0.66 K

Cc1ccc(C(=O)Nc2ccc(CN3CCN(C)CC3)c(C(F)(F)F)c2)cc1C#Cc1cnc2cccnn12 [Ponatinib, reference compound]
pRab8/Rab8/LRRK2 normalized to DMSO, Mean ([3]; 5 μM, 4 h, 3 replicates): 0.2682
pRab8/Rab8/LRRK2 normalized to DMSO ([3]; 5 μM, 4 h, individual Western blots): 0.2608 and 0.2643 and 0.2795
dTm [1]: -0.09 K
dTm [2]: 2.32 K

C[C@@H]1CN(c2cc(-c3n[nH]c4ccc(OC5(C)CC5)cc34)ncn2)C[C@H](C)O1 [MLi2]
dTm [1]: -0.0742 K
dTm [2]: 0.0743 K

CCSc1nc(NC)c2c(-c3cccc(NC(=O)Nc4cc(C(C)(C)C)nn4-c4ccc(C)cc4)c3)c[nH]c2n1 [Compound 32]
pRab8/Rab8/LRRK2 normalized to DMSO, Mean ([3]; 250 nM, 4 h, 3 replicates): 1.109
pRab8/Rab8/LRRK2 normalized to DMSO ([3]; 250 nM, 4 h, individual Western blots, listed as 341): 1.128 and 0.9817 and 1.217
pRab8/Rab8/LRRK2 normalized to DMSO, Mean ([3]; 500 nM, 4 h, 3 replicates): 0.9957
pRab8/Rab8/LRRK2 normalized to DMSO ([3]; 500 nM, 4 h, individual Western blots, listed as 341): 1.05 and 0.7587 and 1.178
pRab8/Rab8/LRRK2 normalized to DMSO, Mean ([3]; 1 μM, 4 h, 3 replicates): 0.8556
pRab8/Rab8/LRRK2 normalized to DMSO ([3]; 1 μM, 4 h, individual Western blots, listed as 341): 0.8182 and 0.7772 and 0.9713
pRab8/Rab8/LRRK2 normalized to DMSO, Mean ([3]; 5 μM, 4 h, 3 replicates): 0.5047
pRab8/Rab8/LRRK2 normalized to DMSO ([3]; 5 μM, 4 h, individual Western blots, listed as 341): 0.5692 and 0.3629 and 0.5821
pRab8/Rab8/LRRK2 normalized to DMSO, Mean ([3]; 10 μM, 4 h, 3 replicates): 0.408
pRab8/Rab8/LRRK2 normalized to DMSO ([3]; 10 μM, 4 h, individual Western blots, listed as 341): 0.4385 and 0.2564 and 0.5293
toxicity [3]: Toxicity did not appear to be an issue
effect on phosphorylation of Rab8a in cells [3]: reduced phosphorylation of Rab8a in a dose-dependent manner
pRab8/Rab8/LRRK2 normalized to DMSO, Mean [3, 4]: 0.2782
pRab8/Rab8/LRRK2 normalized to DMSO ([3]; GFP-11 tagged WT LRRK2, 5 μM, individual blots, normalized to WT DMSO, listed as RN341): 0.1752 and 0.6963 and 0.1155 and 0.1257

— paper PMC12136037, “Type II kinase inhibitors that target Parkinson’s disease–associated LRRK2” (Science Advances, 2025)
